Test results from ChEMBL document CHEMBL4028801, “A multifactorial approach to hepatobiliary transporter assessment enables improved therapeutic compound development” (Toxicol Sci, 2013).
Blank lines part the entries; values can stand above or below the compound they belong to.

Key:
[1] = molecular target: ATP-binding cassette sub-family C member 2 (Homo sapiens, UniProt Q92887); assay: Inhibition of human MRP2 overexpressed in Sf9 cell membrane vesicles assessed as uptake of [3H]-estradiol-17beta-D-glucuronide in presence of ATP and GSH measured after 20 mins by membrane vesicle transport assay
[2] = molecular target: ATP-binding cassette sub-family C member 3 (Homo sapiens, UniProt O15438); assay: Inhibition of human MRP3 overexpressed in Sf9 insect cell membrane vesicles assessed as uptake of [3H]-estradiol-17beta-D-glucuronide in presence of ATP and GSH measured after 10 mins by membrane vesicle transport assay; type: ADME, cell-based
[3] = molecular target: T1, ATP-binding cassette sub-family C member 4 (Homo sapiens, UniProt O15439); assay: Inhibition of human MRP4 overexpressed in Sf9 cell membrane vesicles assessed as uptake of [3H]-estradiol-17beta-D-glucuronide in presence of ATP and GSH measured after 20 mins by membrane vesicle transport assay; type: ADME, cell-based
T1 sequence (O15439 whole entry): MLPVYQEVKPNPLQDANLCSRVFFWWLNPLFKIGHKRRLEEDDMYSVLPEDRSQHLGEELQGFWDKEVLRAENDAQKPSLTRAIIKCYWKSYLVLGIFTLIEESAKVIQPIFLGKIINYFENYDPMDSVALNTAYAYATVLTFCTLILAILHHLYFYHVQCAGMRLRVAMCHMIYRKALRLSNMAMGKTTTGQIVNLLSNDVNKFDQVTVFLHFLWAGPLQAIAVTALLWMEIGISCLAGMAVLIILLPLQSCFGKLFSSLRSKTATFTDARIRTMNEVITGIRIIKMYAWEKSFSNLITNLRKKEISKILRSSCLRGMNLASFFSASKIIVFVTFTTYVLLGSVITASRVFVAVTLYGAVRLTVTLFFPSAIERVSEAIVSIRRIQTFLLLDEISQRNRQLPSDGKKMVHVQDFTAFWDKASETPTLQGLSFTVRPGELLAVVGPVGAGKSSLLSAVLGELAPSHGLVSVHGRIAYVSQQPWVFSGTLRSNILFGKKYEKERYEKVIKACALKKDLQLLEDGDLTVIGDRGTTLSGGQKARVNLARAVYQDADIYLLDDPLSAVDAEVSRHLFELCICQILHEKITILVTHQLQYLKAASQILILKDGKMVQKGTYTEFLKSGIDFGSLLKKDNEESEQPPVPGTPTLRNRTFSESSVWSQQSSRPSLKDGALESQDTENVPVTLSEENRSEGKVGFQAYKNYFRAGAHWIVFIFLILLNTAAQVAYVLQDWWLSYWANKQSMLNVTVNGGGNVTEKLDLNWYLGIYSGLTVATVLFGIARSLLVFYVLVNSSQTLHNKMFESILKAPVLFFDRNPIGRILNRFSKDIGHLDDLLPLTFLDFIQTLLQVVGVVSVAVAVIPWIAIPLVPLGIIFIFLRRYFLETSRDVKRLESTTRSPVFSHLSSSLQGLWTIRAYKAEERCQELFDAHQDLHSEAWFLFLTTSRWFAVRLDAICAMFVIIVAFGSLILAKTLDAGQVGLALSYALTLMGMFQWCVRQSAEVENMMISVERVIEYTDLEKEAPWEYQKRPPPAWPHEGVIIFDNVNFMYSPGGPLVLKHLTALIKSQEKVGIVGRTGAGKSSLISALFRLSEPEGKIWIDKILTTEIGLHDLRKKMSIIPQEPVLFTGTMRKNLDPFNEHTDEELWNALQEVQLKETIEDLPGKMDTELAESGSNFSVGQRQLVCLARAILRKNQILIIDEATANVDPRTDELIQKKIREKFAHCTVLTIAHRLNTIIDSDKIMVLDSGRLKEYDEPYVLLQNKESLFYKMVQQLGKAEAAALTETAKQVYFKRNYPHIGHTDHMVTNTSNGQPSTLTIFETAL

[4] = AUC in human at 750 mg, po TID or 1250 mg, po BID after 12 hrs; type: ADME, organism-based; set-up: dose 750 mg, time < 12 hr, route oral; settings: in vivo
Homo sapiens [5] = assay: Drug concentration at steady state in human at 750 mg, po TID or 1250 mg, po BID after 12 hrs; type: ADME, organism-based; settings: in vivo
[6] = Ratio of drug concentration at steady state in human at 750 mg, po TID or 1250 mg, po BID after 12 hrs to IC50 for human BSEP overexpressed in Sf9 insect cells; type: ADME, organism-based; settings: in vivo
[7] = Ratio of drug concentration at steady state in human at 750 mg, po TID or 1250 mg, po BID after 12 hrs to IC50 for human MRP4 overexpressed in Sf9 insect cells; type: ADME, organism-based; settings: in vivo
[8] = AUC in patient with osteomyelitis at 1500 mg, po QD after 24 hrs; type: ADME, organism-based; set-up: time < 24 hr, dose 1500 mg, route oral; settings: human, in vivo
[9] = Drug concentration at steady state in patient with osteomyelitis at 1500 mg, po QD after 24 hrs; type: ADME, organism-based; settings: human, in vivo, read-out: Css
[10] = Ratio of drug concentration at steady state in patient with osteomyelitis at 1500 mg, po QD after 24 hrs to IC50 for human BSEP overexpressed in Sf9 insect cells; type: ADME, organism-based; settings: in vivo
[11] = AUC in human at 600 mg, po BID after 12 hrs; type: ADME, organism-based; set-up: dose 600 mg, time < 12 hr, route oral; settings: in vivo
[12] = Drug concentration at steady state in human at 600 mg, po BID after 12 hrs; type: ADME, organism-based; settings: in vivo, read-out: Css
[13] = Ratio of AUC in liver to plasma in Sprague-Dawley rat at 1500 mg/kg, po administered as single oral gavage measured after 24 hrs by Liquid chromatography/tandem mass spectrometry; type: ADME, organism-based; settings: liver and plasma, read-out: Ratio AUC
Bile salt export pump = Bile salt export pump (Homo sapiens, UniProt O95342); assay: Inhibition of human BSEP overexpressed in Sf9 cell membrane vesicles assessed as uptake of [3H]-taurocholate in presence of ATP measured after 15 to 20 mins by membrane vesicle transport assay; type: ADME, cell-based
[14] = AUC in human at 100 mg, po BID; type: ADME, organism-based; settings: in vivo
Homo sapiens [15] = assay: Drug concentration at steady state in human at 100 mg, po BID; type: ADME, organism-based; settings: in vivo
[16] = Ratio of drug concentration at steady state in human at 100 mg, po BID to IC50 for human MRP3 overexpressed in Sf9 insect cells; type: ADME, organism-based; settings: in vivo
[17] = Ratio of drug concentration at steady state in human at 100 mg, po BID to IC50 for human BSEP overexpressed in Sf9 insect cells; type: ADME, organism-based; settings: in vivo
[18] = Ratio of drug concentration at steady state in human at 100 mg, po BID to IC50 for human MRP4 overexpressed in Sf9 insect cells; type: ADME, organism-based; settings: in vivo
[19] = AUC in human at 1 to 1.5 g, po BID after 12 hrs; type: ADME, organism-based; settings: in vivo
[20] = Drug concentration at steady state in human at 1 to 1.5 g, po BID after 12 hrs; type: ADME, organism-based; settings: in vivo, read-out: Css
[21] = Ratio of drug concentration at steady state in human at 1 to 1.5 g, po BID after 12 hrs to IC50 for human BSEP overexpressed in Sf9 insect cells; type: ADME, organism-based; settings: in vivo
[22] = Ratio of drug concentration at steady state in human at 1 to 1.5 g, po BID after 12 hrs to IC50 for human MRP4 overexpressed in Sf9 insect cells; type: ADME, organism-based; settings: in vivo
[23] = AUC in human at 200 to 800 mg, po QD after 24 hrs; type: ADME, organism-based; settings: in vivo
[24] = Drug concentration at steady state in human at 200 to 800 mg, po QD after 24 hrs; type: ADME, organism-based; settings: in vivo, read-out: Css
[25] = Ratio of drug concentration at steady state in human at 200 to 800 mg, po QD after 24 hrs to IC50 for human BSEP overexpressed in Sf9 insect cells; type: ADME, organism-based; settings: in vivo
[26] = Ratio of drug concentration at steady state in human at 200 to 800 mg, po QD after 24 hrs to IC50 for human MRP4 overexpressed in Sf9 insect cells; type: ADME, organism-based; settings: in vivo

Sequence of ATP-binding cassette sub-family C member 2 (Q92887 whole entry): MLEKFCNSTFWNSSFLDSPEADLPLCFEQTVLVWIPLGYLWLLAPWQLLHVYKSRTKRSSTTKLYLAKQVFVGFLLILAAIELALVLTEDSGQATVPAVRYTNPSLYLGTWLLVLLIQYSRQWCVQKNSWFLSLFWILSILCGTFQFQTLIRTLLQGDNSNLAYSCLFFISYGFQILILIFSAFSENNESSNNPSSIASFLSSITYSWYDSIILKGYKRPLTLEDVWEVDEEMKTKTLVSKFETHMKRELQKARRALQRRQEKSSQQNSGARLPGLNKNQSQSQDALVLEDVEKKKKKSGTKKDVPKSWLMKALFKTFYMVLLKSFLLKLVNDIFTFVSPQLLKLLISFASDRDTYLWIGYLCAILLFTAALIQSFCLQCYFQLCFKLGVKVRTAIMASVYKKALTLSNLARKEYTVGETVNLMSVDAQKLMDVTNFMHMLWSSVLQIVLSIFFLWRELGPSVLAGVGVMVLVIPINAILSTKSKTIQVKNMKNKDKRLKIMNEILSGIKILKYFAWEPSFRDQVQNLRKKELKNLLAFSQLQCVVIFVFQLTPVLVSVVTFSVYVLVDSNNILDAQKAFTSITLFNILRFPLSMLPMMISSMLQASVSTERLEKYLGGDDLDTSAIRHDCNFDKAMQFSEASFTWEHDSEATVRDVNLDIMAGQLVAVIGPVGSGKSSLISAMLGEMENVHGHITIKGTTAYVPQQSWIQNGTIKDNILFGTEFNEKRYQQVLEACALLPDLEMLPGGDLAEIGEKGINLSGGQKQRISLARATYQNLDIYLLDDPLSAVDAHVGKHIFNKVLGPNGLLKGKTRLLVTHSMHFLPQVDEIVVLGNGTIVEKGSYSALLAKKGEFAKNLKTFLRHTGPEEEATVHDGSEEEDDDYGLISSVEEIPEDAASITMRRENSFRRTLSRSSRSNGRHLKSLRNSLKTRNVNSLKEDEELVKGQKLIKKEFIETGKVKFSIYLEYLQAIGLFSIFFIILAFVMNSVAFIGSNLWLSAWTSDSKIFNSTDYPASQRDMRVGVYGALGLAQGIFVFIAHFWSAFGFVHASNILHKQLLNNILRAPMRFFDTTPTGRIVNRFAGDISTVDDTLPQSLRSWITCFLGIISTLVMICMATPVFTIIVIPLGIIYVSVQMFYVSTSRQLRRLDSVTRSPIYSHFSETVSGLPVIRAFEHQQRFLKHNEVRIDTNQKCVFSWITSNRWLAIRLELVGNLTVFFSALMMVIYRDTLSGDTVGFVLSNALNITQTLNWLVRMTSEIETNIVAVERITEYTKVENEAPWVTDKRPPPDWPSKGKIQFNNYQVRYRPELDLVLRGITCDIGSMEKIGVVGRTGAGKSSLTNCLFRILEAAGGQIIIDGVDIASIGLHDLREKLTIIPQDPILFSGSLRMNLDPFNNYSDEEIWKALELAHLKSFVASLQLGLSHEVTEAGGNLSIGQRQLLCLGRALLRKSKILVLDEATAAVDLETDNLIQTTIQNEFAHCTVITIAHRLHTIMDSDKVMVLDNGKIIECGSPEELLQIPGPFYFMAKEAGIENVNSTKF
Sequence of ATP-binding cassette sub-family C member 3 (O15438 whole entry): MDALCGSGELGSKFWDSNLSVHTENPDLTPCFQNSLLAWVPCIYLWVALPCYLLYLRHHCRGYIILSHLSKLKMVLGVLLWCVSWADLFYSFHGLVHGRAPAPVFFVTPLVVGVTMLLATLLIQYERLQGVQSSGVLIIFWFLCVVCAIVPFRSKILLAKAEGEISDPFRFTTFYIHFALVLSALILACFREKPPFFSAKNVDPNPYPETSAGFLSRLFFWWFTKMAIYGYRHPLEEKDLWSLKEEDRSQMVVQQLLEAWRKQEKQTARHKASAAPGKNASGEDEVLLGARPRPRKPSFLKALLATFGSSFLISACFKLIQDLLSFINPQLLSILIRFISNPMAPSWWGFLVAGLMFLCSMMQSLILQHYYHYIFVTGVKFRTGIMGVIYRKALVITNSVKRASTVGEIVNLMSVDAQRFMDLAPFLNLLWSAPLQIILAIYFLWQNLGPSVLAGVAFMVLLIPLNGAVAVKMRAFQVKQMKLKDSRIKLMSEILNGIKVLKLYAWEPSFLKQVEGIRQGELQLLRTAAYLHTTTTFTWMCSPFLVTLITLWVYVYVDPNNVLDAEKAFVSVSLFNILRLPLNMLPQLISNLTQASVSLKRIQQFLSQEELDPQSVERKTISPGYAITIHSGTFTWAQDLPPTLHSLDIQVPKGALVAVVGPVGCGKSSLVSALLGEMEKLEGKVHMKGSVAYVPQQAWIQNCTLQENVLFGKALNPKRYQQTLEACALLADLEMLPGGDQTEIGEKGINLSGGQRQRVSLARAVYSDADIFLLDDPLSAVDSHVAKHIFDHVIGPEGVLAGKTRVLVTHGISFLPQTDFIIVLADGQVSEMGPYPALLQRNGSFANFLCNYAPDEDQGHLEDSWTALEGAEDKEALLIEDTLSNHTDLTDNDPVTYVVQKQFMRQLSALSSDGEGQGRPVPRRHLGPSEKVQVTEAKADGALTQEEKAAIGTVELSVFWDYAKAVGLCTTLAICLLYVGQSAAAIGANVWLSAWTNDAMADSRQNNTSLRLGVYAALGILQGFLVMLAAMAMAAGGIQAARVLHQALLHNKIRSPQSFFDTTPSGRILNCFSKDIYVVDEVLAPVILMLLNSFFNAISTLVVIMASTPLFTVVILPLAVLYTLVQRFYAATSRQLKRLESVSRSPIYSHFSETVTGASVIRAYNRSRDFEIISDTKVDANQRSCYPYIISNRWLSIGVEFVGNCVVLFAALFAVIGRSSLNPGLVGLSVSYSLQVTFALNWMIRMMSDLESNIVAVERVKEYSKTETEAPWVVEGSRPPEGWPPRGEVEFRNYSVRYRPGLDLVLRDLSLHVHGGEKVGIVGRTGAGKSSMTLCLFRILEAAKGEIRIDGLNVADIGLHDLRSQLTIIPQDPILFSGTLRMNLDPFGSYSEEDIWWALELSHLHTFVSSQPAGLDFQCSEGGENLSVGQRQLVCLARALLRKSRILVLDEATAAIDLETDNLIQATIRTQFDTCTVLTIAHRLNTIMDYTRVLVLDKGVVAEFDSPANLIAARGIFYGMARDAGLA
Sequence of Bile salt export pump (O95342 whole entry): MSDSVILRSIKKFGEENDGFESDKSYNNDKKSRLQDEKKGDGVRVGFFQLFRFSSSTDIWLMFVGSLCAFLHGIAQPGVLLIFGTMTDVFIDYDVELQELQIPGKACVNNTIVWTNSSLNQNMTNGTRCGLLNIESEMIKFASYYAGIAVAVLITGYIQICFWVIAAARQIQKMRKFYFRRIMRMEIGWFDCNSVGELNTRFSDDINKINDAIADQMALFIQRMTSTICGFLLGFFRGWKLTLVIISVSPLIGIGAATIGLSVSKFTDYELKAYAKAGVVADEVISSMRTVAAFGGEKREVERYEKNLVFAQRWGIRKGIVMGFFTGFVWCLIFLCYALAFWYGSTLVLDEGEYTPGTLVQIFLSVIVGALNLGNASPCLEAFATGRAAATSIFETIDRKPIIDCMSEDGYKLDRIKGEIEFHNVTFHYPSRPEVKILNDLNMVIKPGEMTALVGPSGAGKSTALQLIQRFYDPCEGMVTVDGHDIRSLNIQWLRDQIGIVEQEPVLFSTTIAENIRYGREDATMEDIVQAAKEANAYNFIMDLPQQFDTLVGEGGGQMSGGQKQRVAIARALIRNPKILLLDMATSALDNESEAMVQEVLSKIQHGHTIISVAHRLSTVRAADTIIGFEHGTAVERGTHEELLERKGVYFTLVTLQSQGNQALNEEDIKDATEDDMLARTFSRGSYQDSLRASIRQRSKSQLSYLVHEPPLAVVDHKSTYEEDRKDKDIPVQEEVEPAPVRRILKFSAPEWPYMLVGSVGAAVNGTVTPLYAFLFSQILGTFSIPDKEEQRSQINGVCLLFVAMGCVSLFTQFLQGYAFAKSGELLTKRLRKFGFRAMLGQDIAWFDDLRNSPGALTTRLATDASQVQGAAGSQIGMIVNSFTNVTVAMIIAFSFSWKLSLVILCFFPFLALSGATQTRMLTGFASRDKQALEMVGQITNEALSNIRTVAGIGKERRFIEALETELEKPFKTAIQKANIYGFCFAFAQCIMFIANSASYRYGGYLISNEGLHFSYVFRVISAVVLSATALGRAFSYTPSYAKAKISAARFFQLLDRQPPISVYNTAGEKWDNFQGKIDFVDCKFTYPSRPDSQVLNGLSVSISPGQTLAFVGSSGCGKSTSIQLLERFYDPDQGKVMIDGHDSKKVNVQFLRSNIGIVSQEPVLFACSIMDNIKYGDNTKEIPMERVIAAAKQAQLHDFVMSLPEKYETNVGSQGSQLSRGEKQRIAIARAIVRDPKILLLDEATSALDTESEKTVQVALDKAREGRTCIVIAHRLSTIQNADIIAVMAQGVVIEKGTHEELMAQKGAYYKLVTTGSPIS

SMILES: Cc1c(O)cccc1C(=O)N[C@@H](CSc1ccccc1)[C@H](O)CN1C[C@H]2CCCC[C@H]2C[C@H]1C(=O)NC(C)(C)C
- IC50 [1]: > 133 µM
- IC50 [2]: > 133 µM
- IC50 [3]: 97 µM
- AUC at 12 h [4]: 77.8 µM·h
- Css (Homo sapiens [5]): 6.482 µM
- Ratio [6]: 0.549
- Ratio [7]: 0.067

SMILES: CC(=O)O[C@H]1C[C@@]2(C)[C@@H](C[C@@H](O)[C@H]3[C@@]4(C)CC[C@@H](O)[C@@H](C)[C@@H]4CC[C@@]32C)/C1=C(\CCC=C(C)C)C(=O)O [FUSIDIC ACID]
- IC50 [1]: > 133 µM
- IC50 [2]: > 133 µM
- IC50 [3]: > 133 µM
- AUC at 24 h [8]: 6390 µM·h
- concentration at 24 h [9]: 266 µM
- Ratio [10]: 26.38

SMILES: COc1c(C)c2c(c(O)c1C/C=C(\C)CCC(=O)OCCN1CCOCC1)C(=O)OC2 [MYCOPHENOLATE MOFETIL]
- IC50 (Bile salt export pump): 76 µM
- IC50 [1]: > 133 µM
- IC50 [2]: > 133 µM
- IC50 [3]: 83 µM
- AUC at 12 h [19]: 45700 ng·h/mL
- concentration at 12 h [20]: 3810 µM
- Ratio [21]: 49.945
- Ratio [22]: 45.853

More lines, main results first:

- AUC at 12 h [11]: 413 µM·h
- concentration at 12 h [12]: 34.4 µM
SMILES: CC(C)c1nc(CN(C)C(=O)N[C@H](C(=O)N[C@@H](Cc2ccccc2)C[C@H](O)[C@H](Cc2ccccc2)NC(=O)OCc2cncs2)C(C)C)cs1 [RITONAVIR]

- Kp at 24 h [13]: 27
- IC50 [2]: 1.1 µM
- IC50 [3]: 13.5 µM
- AUC [14]: 32800 ng·h/mL
- Css (Homo sapiens [15]): 2.4 µM
- Ratio [16]: 2.2
- Ratio [18]: 0.18
SMILES: CCCCNC(=O)c1ccc(Oc2ccc(CC(=O)O)cc2OC)c(NS(=O)(=O)c2ccc(Cl)cc2Cl)c1
- IC50 (Bile salt export pump): 11.5 µM
- Ratio [17]: 0.21

- IC50 [1]: > 133 µM
- IC50 [2]: > 133 µM
- IC50 [3]: 8.1 µM
- AUC at 24 h [23]: 2370 µM·h
- concentration at 24 h [24]: 98.8 µM
- Ratio [26]: 12.192
SMILES: Cc1ccc(Nc2nccc(N(C)c3ccc4c(C)n(C)nc4c3)n2)cc1S(N)(=O)=O [PAZOPANIB]
- IC50 (Bile salt export pump): 10.3 µM
- Ratio [25]: 9.588
